Experimental data: US20240207238A1, “INHIBITORS OF PROTEIN TYROSINE PHOSPHATASE, COMPOSITIONS, AND METHODS OF USE” (BRISTOL-MYERS SQUIBB COMPANY, priority 2022, published 2024)
Like-named read-outs stand apart in the source and are kept apart here.

How the values were obtained:
[1] = tested on: phosphorylated STAT1 in B16-F10 cells; assay: Phospho-STAT1 (Tyr701) HTRF assay in B16-F10 cells; assay type: cell-based; settings: 100 ng/mL mouse IFN-gamma, 1 hour, read-out: pSTAT1 HTRF B16 EC50
Description: B16-F10 cells (ATCC, Manassas, VA, #CRL-6475) were cultured in DMEM growth medium (ThermoFisher Scientific, Waltham, MA, #11995-040) supplemented with 10% heat-inactivated FBS (ThermoFisher Scientific, #16140-071) and 1% pen/strep (ThermoFisher Scientific, #15140-122). The cells were seeded into a white opaque 384-well tissue culture treated microplate (PerkinElmer, Waltham, MA, #6007688) at a density of 10,000 cells/well in 20 uL total volume and incubated overnight at 37 C and 5% CO2. 30 nL of compounds dissolved in DMSO were then transferred from a source plate into target wells with the Echo650 acoustic liquid handler (Beckman Coulter, Indianapolis, IN). Negative control wells received 30 nL of DMSO only (0.15% final concentration). Plates were returned to the incubator for 1 hour and then cells were treated with either 5 uL of growth medium or 5 uL of growth medium containing 500 ng/ml of recombinant mouse IFN-gamma protein (R&D Systems, Minneapolis, MN, #485-MI/CF, 100 ng/mL final concentration) using the Assist automated pipetting platform (INTEGRA Biosciences, Hudson, NH). Plates were incubated at 37 C for 1 hour and assayed for phosphorylated STAT1 protein levels with the phospho-STAT1 (Tyr701) HTRF kit (Cisbio, Bedford, MA, #63ADK026PEH) according to the manufacturer's instructions.

B16-F10 cells = assay: Cell proliferation assay (CellTiter-Glo) in B16-F10 cells with IFN-gamma; assay type: cell-based; settings: 10 ng/ml mouse IFN-gamma, read-out: Prolif. 5d B16 GI50
PTPN2 [2] = target: T1, PTPN2 (Homo sapiens (Human), UniProt P17706); assay: Phosphatase activity assay using DiFMUP as substrate; assay type: biochemical; settings: 0.15 nM PTPN2, read-out: PTPN2 BChem DIFMUP IC50
Description: The PTPN2 biochemical assay was performed as follows, a 5× stock solution of human PTPN2 (SRP5075, MilliporeSigma, Burlington, MA) and a 1.25× stock solution of DiFMUP (D6567, ThermoFisher Scientific, Waltham, MA), were prepared in 1× reaction buffer consisting of 50 mM HEPES, pH 7.4, 1 mM EDTA, 150 mM NaCl, 0.2 mg/mL BSA, 100 U/mL catalase and 10 mM DTT. […] of the DiFMUP substrate solution, for a final concentration of […] DiFMUP substrate, was added to a Corning 3574 384-well, white, non-binding surface microtiter plate containing […] of serially diluted test compounds prepared in DMSO. The reactions were started with the addition of […] of the enzyme solution, for a final PTPN2 concentration of 0.15 nM, and monitored every 105 seconds for 60 minutes at MEX 360/2EM 460 in a BioTek Synergy HTX plate reader (Agilent Technologies, Santa Clara, CA) at room temperature. The initial linear portions of the progress curves were fit according to a linear equation to yield the slopes and converted to % inhibition based on a value of 100% activity for the no inhibitor treated control. IC50 values of each compound were obtained by fitting the % inhibition-compound concentration curves using Dotmatics software (Dotmatics, Bishops Stortford, Hertfordshire, England).
(§1) For IC50 data, High DDT concentration and/or DiFMUP substrate assays were used; a skilled artisan may use either assay.

PTPN2 [3] = target: T1, PTPN2; assay: PTPN2 biochemical assay, high DTT (PhosphoSens); settings: high DTT concentration assay; read-out: PTPN2 BChem HIGHDTT IC50
Description: A PhosphoSens® kinase assay was performed as described by the vendor (AssayQuant Technologies, Marlborough, MA). Briefly, 1000× solutions of compounds were prepared in DMSO via serial dilution of the 10 mM DMSO stocks using 3-fold intervals in a 384-well reagent plate. 50 nL of the compound dilution series was then added to the corresponding wells of a 384-well assay plate. […] Finally, […] of 5×PTPN2 enzyme stock was added to each well of the assay plate for a final enzyme concentration of 150 pM. Reaction progress curves were collected by sampling fluorescence intensity at the excitation wavelength 360 nm (Quex360) and emission wavelength 480 nm (λem480) every 71 seconds for one hour using a Synergy H4 plate reader (BioTek Instruments/Agilent Technologies, Winooski, VT) at room temperature.
as §1

T1 sequence (P17706 whole entry): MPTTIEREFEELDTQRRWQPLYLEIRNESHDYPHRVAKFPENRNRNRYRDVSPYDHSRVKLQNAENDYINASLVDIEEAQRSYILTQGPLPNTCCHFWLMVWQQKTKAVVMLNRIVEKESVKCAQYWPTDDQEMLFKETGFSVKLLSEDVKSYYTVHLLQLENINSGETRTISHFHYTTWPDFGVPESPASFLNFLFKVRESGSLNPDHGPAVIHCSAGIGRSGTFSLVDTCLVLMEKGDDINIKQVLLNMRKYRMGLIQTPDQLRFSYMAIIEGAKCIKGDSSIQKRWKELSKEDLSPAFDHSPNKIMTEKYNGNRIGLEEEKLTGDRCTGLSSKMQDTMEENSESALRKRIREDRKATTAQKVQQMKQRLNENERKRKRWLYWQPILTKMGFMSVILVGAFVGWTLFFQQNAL

Compound: O=C1CN(c2c(F)cc(CNc3cc(C4CC4)ccn3)c3cn[nH]c23)S(=O)(=O)N1 [Example 4, 5-[4-[[(4-cyclopropyl-2-pyridyl)amino]methyl]-6-fluoro-1H-indazol-7-yl]-1,1-dioxo-1,2,5-thiadiazolidin-3-one]
- EC50 [1]: 3120 nM
- GI50 (B16-F10 cells; 120 h): 2690 nM
- IC50 (PTPN2 [2]): 2 nM
- IC50 (PTPN2 [3]): 1 nM

Compound: Cc1cc(NCc2cc(F)c(N3CC(=O)NS3(=O)=O)c3[nH]ncc23)ncc1C#N [Example 8, 6-[[6-fluoro-7-(1,1,4-trioxo-1,2,5-thiadiazolidin-2-yl)-1H-indazol-4-yl]methylamino]-4-methyl-pyridine-3-carbonitrile]
- EC50 [1]: 9210 nM
- GI50 (B16-F10 cells; 120 h): > 15000 nM
- IC50 (PTPN2 [2]): 67 nM

Compound: COc1cc(C)nc(NCc2cc(F)c(N3CC(=O)NS3(=O)=O)c3[nH]ncc23)c1 [Example 9, 5-[6-fluoro-4-[[(4-methoxy-6-methyl-2-pyridyl)amino]methyl]-1H-indazol-7-yl]-1,1-dioxo-1,2,5-thiadiazolidin-3-one]
- EC50 [1]: 91 nM
- GI50 (B16-F10 cells; 120 h): 20 nM
- IC50 (PTPN2 [2]): 1 nM

Compound: 5-(4-(((4,6-dimethylpyridin-2-yl)amino)methyl)-6-fluoro-1H-indazol-7-yl)-1,2,5-thiadiazolidin-3-one 1,1-dioxide [Example 6]
- EC50 [1]: 3690 nM
- GI50 (B16-F10 cells): 3260 nM
- IC50 (PTPN2 [2]): 83 nM

Compound: 5-(6-fluoro-4-(((4-methoxy-5-methylpyridin-2-yl)amino)methyl)-1H-indazol-7-yl)-1,2,5-thiadiazolidin-3-one 1,1-dioxide [Example 7]
- EC50 [1]: > 15000 nM
- GI50 (B16-F10 cells): > 15000 nM
- IC50 (PTPN2 [2]): 199 nM

Compound: 5-[6-fluoro-4-[[(6-methoxy-2-pyridyl)amino]methyl]-1H-indazol-7-yl]-1,1-dioxo-1,2,5-thiadiazolidin-3-one [Example 1]
- EC50 [1]: 287 nM
- GI50 (B16-F10 cells): 160 nM
- IC50 (PTPN2 [2]): 2 nM
- IC50 (PTPN2 [3]): 5 nM

Compound: 5-[6-fluoro-4-[[(4-methoxy-2-pyridyl)amino]methyl]-1H-indazol-7-yl]-1,1-dioxo-1,2,5-thiadiazolidin-3-one [Example 3]
- EC50 [1]: 764 nM
- GI50 (B16-F10 cells): 350 nM
- IC50 (PTPN2 [2]): 9 nM
- IC50 (PTPN2 [3]): 6 nM

Compound: 5-[6-fluoro-4-[[(4-methyl-2-pyridyl)amino]methyl]-1H-indazol-7-yl]-1,1-dioxo-1,2,5-thiadiazolidin-3-one [Example 5]
- EC50 [1]: 440 nM
- GI50 (B16-F10 cells): 166 nM
- IC50 (PTPN2 [2]): 8 nM
- IC50 (PTPN2 [3]): 5 nM

Compound: 5-[6-fluoro-4-[[(3-methyl-2-pyridyl) amino] methyl]-1H-indazol-7-yl]-1,1-dioxo-1,2,5-thiadiazolidin-3-one [Example 10]
- EC50 [1]: 14000 nM
- GI50 (B16-F10 cells): 3970 nM
- IC50 (PTPN2 [2]): 16 nM

Compound: 5-(6-fluoro-4-(((5-methoxypyridin-2-yl)amino)methyl)-1H-indazol-7-yl)-1,2,5-thiadiazolidin-3-one 1,1-dioxide [Example 2]
- EC50 [1]: 1880 nM
- GI50 (B16-F10 cells): 880 nM
- IC50 (PTPN2 [2]): 24 nM
- IC50 (PTPN2 [3]): 42 nM
